Data as given in patent US20250382344A1, “Soluble GLP1/GIP/NPY2 Receptor Triple Agonists” (Boehringer Ingelheim International GmH, priority 2024, published 2025).
Read-outs that look alike come from different tables or passages of the source.

Legend:
hGIPR = biological target: T1, hGIPR (Homo sapiens, UniProt P48546); assay: hGIPR CreLuc assay in 0.5% and 100% plasma (CHO CRE-luciferase reporter cells); type: cell-based; details: 0.5% human plasma, read-out: hGIPR 0.5% hP
T1 construct: expressed in transfected cells; host or cells: CHO CRE-luciferase reporter cells
T1 sequence (P48546 22-466): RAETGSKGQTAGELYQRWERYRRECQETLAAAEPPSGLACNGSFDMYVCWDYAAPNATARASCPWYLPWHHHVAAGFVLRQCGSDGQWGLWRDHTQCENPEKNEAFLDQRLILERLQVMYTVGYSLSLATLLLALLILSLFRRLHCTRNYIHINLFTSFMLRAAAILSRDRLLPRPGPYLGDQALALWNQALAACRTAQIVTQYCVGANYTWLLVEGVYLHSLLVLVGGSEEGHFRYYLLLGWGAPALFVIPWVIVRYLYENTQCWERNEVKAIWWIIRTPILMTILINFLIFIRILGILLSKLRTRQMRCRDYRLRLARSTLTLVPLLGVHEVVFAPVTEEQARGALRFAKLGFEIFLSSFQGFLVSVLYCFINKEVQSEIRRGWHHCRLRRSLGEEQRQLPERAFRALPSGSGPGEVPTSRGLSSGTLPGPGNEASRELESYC

[1] = Solubility in 0.1 M phosphate buffer at pH 7; type: physicochemical; details: 0.1 M phosphate buffer at pH 7, 10 mg/mL final peptide concentration, shaking 2 hours at room temperature, peptides as TFA-salts; measured sample pH 6.5-7.0
hGLP1R = biological target: T2, hGLP1R (Homo sapiens, UniProt P43220); assay: hGLP1R CreLuc assay in 0.5% and 100% plasma (HEK-293 CRE-luciferase reporter cells); type: cell-based; details: HEK-293 reporter cells
T2 construct: expressed in transfected cells; host or cells: HEK-293 CRE-luciferase reporter cells

[2] = 0.5% human plasma, read-out: hGLP1R 0.5% hP

T2 sequence (P43220 24-463): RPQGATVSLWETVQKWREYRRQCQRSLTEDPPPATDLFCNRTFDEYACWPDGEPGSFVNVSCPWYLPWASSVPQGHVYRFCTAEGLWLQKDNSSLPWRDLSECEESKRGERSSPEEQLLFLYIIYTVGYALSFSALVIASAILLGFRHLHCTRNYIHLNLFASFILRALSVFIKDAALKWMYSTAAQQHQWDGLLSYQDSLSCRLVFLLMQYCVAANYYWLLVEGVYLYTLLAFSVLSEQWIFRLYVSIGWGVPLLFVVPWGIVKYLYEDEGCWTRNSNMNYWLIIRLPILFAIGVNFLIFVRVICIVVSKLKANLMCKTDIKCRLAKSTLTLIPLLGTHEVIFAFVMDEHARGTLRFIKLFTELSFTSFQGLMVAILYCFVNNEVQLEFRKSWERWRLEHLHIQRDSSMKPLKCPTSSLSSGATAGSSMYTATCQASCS

EC50 (hGIPR) [nM]	solubility at 2 h [1] [µg/mL]	EC50 (hGLP1R; [2]) [nM]	EC50 (hGLP1R; 100% human plasma, read-out: hGLP1R 100% hP) [nM]	Structure (SMILES)
0.2	4100	0.7	4	CC[C@H](C)[C@H](NC(=O)[C@H](CC(C)C)NC(=O)[C@H](C)NC(=O)[C@H](CCCNC(=N)N)NC(=O)[C@@H](NC(=O)[C@H](Cc1ccccc1)NC(=O)[C@H](C)NC(=O)C(C)(C)NC(=O)[C@H](CCC(N)=O)NC(=O)[C@H](C)NC(=O)[C@H](CCC(N)=O)NC(=O)[C@H](CCCCN)NC(=O)[C@H](CCC(=O)O)NC(=O)[C@H](CC(C)C)NC(=O)C(C)(C)NC(=O)[C@@H](NC(=O)[C@H](CO)NC(=O)[C@H](Cc1ccc(O)cc1)NC(=O)[C@H](CC(=O)O)NC(=O)[C@H](CO)NC(=O)[C@@H](NC(=O)[C@H](Cc1ccccc1)NC(=O)[C@@H](NC(=O)CNC(=O)[C@H](CCC(=O)O)NC(=O)C(C)(C)NC(=O)[C@@H](N)Cc1ccc(O)cc1)[C@@H](C)O)[C@@H](C)O)[C@@H](C)CC)C(C)C)C(=O)N[C@@H](CC(N)=O)C(=O)N[C@@H](CCCCNC(=O)[C@@H](N)CCCCNC(=O)CC[C@H](NC(=O)CC[C@H](NC(=O)CC[C@H](NC(=O)CC[C@H](NC(=O)CC[C@H](NC(=O)CC[C@H](NC(=O)CCCCCCCCCCCCCCCCC(=O)O)C(=O)O)C(=O)O)C(=O)O)C(=O)O)C(=O)O)C(=O)O)C(=O)NC(C)(C)C(=O)N[C@H](C(=O)N[C@@H](CCCNC(=N)N)C(=O)N[C@@H](CCC(N)=O)C(=O)N[C@@H](CCCNC(=N)N)C(=O)N[C@@H](Cc1ccc(O)cc1)C(N)=O)[C@@H](C)O [Compound 128, Y-Aib-E-G-T-F-T-S-D-Y-S-I-Aib-L-E-K-Q-A-Q-Aib-A-F-V-R-A-L-I-N-K(1,3)-Aib-T-R-Q-R-Y-NH2.C18DA-gGlu-gGlu-gGlu-gGlu-gGlu-gGlu-eLys(1,2)]
0.1	7700	0.5		CC[C@H](C)[C@H](NC(=O)[C@H](CC(C)C)NC(=O)[C@H](Cc1c[nH]cn1)NC(=O)[C@H](CCCNC(=N)N)NC(=O)[C@@H](NC(=O)[C@H](Cc1ccccc1)NC(=O)[C@H](C)NC(=O)C(C)(C)NC(=O)[C@H](CCC(N)=O)NC(=O)[C@H](C)NC(=O)[C@H](CCC(N)=O)NC(=O)[C@H](CCC(=O)O)NC(=O)[C@H](CCC(=O)O)NC(=O)[C@H](CC(C)C)NC(=O)C(C)(C)NC(=O)[C@@H](NC(=O)[C@H](CO)NC(=O)[C@H](Cc1ccc(O)cc1)NC(=O)[C@H](CC(=O)O)NC(=O)[C@H](CO)NC(=O)[C@@H](NC(=O)[C@H](Cc1ccccc1)NC(=O)[C@@H](NC(=O)CNC(=O)[C@H](CCC(=O)O)NC(=O)C(C)(C)NC(=O)[C@@H](N)Cc1ccc(O)cc1)[C@@H](C)O)[C@@H](C)O)[C@@H](C)CC)C(C)C)C(=O)N[C@@H](CC(N)=O)C(=O)N[C@@H](CCCCNC(=O)[C@@H](N)CCCCNC(=O)CC[C@H](NC(=O)CC[C@H](NC(=O)CC[C@H](NC(=O)CC[C@H](NC(=O)CC[C@H](NC(=O)CCCCCCCCCCCCCCCCC(=O)O)C(=O)O)C(=O)O)C(=O)O)C(=O)O)C(=O)O)C(=O)NC(C)(C)C(=O)N[C@H](C(=O)N[C@@H](CCCNC(=N)N)C(=O)N[C@@H](CCC(N)=O)C(=O)N[C@@H](CCCNC(=N)N)C(=O)N[C@@H](Cc1ccc(O)cc1)C(N)=O)[C@@H](C)O [Compound 48, Y-Aib-E-G-T-F-T-S-D-Y-S-I-Aib-L-E-E-Q-A-Q-Aib-A-F-V-R-H-L-I-N-K(1,3)-Aib-T-R-Q-R-Y-NH2.C18DA-gGlu-gGlu-gGlu-gGlu-gGlu-eLys(1,2)]
